This test has as its system CAL51 cell proliferation. Put plainly: Cell Titer Glo Proliferation Assay (CAL51). The class given is cell-based, human. To be noted: Homo sapiens, CAL-51; CAL51 cell proliferation, 72 h, Cell Titer Glo luminescence; read-out: Act. Level. Summed up: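 CAL51 triple-negative breast cancer cells in DMEM or RPMI with 10% FBS were treated after overnight culture with serially diluted compound at 0.2% final DMSO. After 72 h, viability was read as CellTiter-Glo luminescence.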
A general note: In ATP-based viability assays light output follows the ATP content of the culture.

Take `CNC(=O)c1ccc(Nc2nc(OC3CCOCC3)c3c(-c4ccc(N(C)C)nc4)c[nH]c3n2)c(OC)c1` [Example 126, 4-(5-(6-(dimethylamino)pyridin-3-yl)-4-(tetrahydro-2H-pyran-4-yloxy)-7H-pyrrolo[2,3-d]pyrimidin-2-ylamino)-3-methoxy-N-methylbenzamide]: the IC50 was in the range of 400 to 1000 nM.

Regarding `CNC(=O)c1ccc(Nc2nc(OC3CCCC3)c3c(-c4ccncc4)c[nH]c3n2)c(OC)c1` [Example 66, 4-(4-(cyclopentyloxy)-5-(pyridin-4-yl)-7H-pyrrolo[2,3-d]pyrimidin-2-ylamino)-3-methoxy-N-methylbenzamide], the IC50 was under 100 nM.

Consider `CNC(=O)c1ccc(Nc2nc(OC3CCCC3)c3c(-c4ccc(NS(C)(=O)=O)cc4)c[nH]c3n2)c(OC)c1` [Example 32, 4-(4-(cyclopentyloxy)-5-(4-(methylsulfonamido)phenyl)-7H-pyrrolo[2,3-d]pyrimidin-2-ylamino)-3-methoxy-N-methylbenzamide], for which the IC50 was under 100 nM.

As to `CNC(=O)c1ccc(Nc2nc(OC3CCOCC3)c3c(-c4ccn(C)n4)c[nH]c3n2)c(OC)c1` [Example 163, 3-methoxy-N-methyl-4-(5-(1-methyl-1H-pyrazol-3-yl)-4-(tetrahydro-2H-pyran-4-yloxy)-7H-pyrrolo[2,3-d]pyrimidin-2-ylamino)benzamide], the IC50 is under 100 nM.

For `COc1nc(Nc2ccc(C(=O)N(C)C)cc2Cl)nc2[nH]cc(-c3ccc4[nH]c(C)nc4c3)c12` [Example 83, 3-chloro-4-(4-methoxy-5-(2-methyl-1H-benzo[d]imidazol-5-yl)-7H-pyrrolo[2,3-d]pyrimidin-2-ylamino)-N,N-dimethylbenzamide], the IC50 was under 100 nM.

For the compound `CNC(=O)c1ccc(Nc2nc(OC(C)C)c3c(-c4cccc(S(C)(=O)=O)c4)c[nH]c3n2)c(OC)c1` [Example 187, 4-(4-isopropoxy-5-(3-(methylsulfonyl)phenyl)-7H-pyrrolo[2,3-d]pyrimidin-2-ylamino)-3-methoxy-N-methylbenzamide], the IC50 fell in the range of 100 to 400 nM.

On to `Cc1cc(C(=O)N(C)C)ccc1Nc1nc(OC2CCOCC2)c2c(-c3cccc(S(C)(=O)=O)c3)c[nH]c2n1` [Example 105, N,N,3-trimethyl-4-(5-(3-(methylsulfonyl)phenyl)-4-(tetrahydro-2H-pyran-4-yloxy)-7H-pyrrolo[2,3-d]pyrimidin-2-ylamino)benzamide], for which the IC50 was under 100 nM.

On to `CNC(=O)c1ccc(Nc2nc(OC3CCCC3)c3c(-c4ccc5nonc5c4)c[nH]c3n2)c(OC)c1` [Example 260, 4-(5-(benzo[c][1,2,5]oxadiazol-5-yl)-4-(cyclopentyloxy)-7H-pyrrolo[2,3-d]pyrimidin-2-ylamino)-3-methoxy-N-methylbenzamide], for which the IC50 lay within 1000 to 10000 nM.

Take `CNC(=O)c1ccc(Nc2nc(OC3CCOCC3)c3c(-c4ccnc(N(C)C)c4)c[nH]c3n2)c(OC)c1` [Example 131, 4-(5-(2-(dimethylamino)pyridin-4-yl)-4-(tetrahydro-2H-pyran-4-yloxy)-7H-pyrrolo[2,3-d]pyrimidin-2-ylamino)-3-methoxy-N-methylbenzamide]: the IC50 was under 100 nM.

As for `CNC(=O)c1ccc(Nc2nc(OC3CCCC3)c3c(-c4ccc(O)c(Cl)c4)c[nH]c3n2)c(OC)c1` [Example 24, 4-(5-(3-chloro-4-hydroxyphenyl)-4-(cyclopentyloxy)-7H-pyrrolo[2,3-d]pyrimidin-2-ylamino)-3-methoxy-N-methylbenzamide], the IC50 is under 100 nM.

Regarding `CNCCOc1nc(Nc2ccc(C(=O)NC)cc2OC)nc2[nH]cc(-c3ccc4nc(C)oc4c3)c12` [Example 138, 3-methoxy-N-methyl-4-(4-(2-(methylamino)ethoxy)-5-(2-methylbenzo[d]oxazol-6-yl)-7H-pyrrolo[2,3-d]pyrimidin-2-ylamino)benzamide], the IC50 is 1000 to 10000 nM.

Consider `COc1cc(C(=O)NCCN(C)C)ccc1Nc1nc(OC2CCOCC2)c2c(-c3ccc4nc(C)oc4c3)c[nH]c2n1` [Example 127, N-(2-(dimethylamino)ethyl)-3-methoxy-4-(5-(2-methylbenzo[d]oxazol-6-yl)-4-(tetrahydro-2H-pyran-4-yloxy)-7H-pyrrolo[2,3-d]pyrimidin-2-ylamino)benzamide], for which the IC50 is under 100 nM.

As for `COc1cc(C(=O)N[C@@H](C)CO)ccc1Nc1nc(OC2CCCC2)c2c(-c3ccc4nc(C)oc4c3)c[nH]c2n1` [Example 215, (S)-4-(4-(cyclopentyloxy)-5-(2-methylbenzo[d]oxazol-6-yl)-7H-pyrrolo[2,3-d]pyrimidin-2-ylamino)-N-(1-hydroxypropan-2-yl)-3-methoxybenzamide], the IC50 is under 100 nM.

Take `COc1cc(C(=O)N2CC2)ccc1Nc1nc(O[C@H]2CC[C@@](C)(O)CC2)c2c(-c3ccc4nc(C)oc4c3)c[nH]c2n1` [Example 315, aziridin-1-yl(4-(4-((1s,4s)-4-hydroxy-4-methylcyclohexyloxy)-5-(2-methylbenzo[d]oxazol-6-yl)-7H-pyrrolo[2,3-d]pyrimidin-2-ylamino)-3-methoxyphenyl) methanone]: the IC50 was under 100 nM.

As for `CNC(=O)c1ccc(Nc2nc(OC3CCCC3)c3c(-c4cn[nH]c4)c[nH]c3n2)c(OC)c1` [Example 82, 4-(4-(cyclopentyloxy)-5-(1H-pyrazol-4-yl)-7H-pyrrolo[2,3-d]pyrimidin-2-ylamino)-3-methoxy-N-methylbenzamide], the IC50 is under 100 nM.

As to `CNC(=O)c1ccc(Nc2nc(OC3CCCC3)c3c(-c4ccc(O)cc4)c[nH]c3n2)c(C)c1` [Example 9], the IC50 is under 100 nM.

As to `CNC(=O)c1ccc(Nc2nc(NC(C)C)c3c(-c4ccc5nc(C)oc5c4)c[nH]c3n2)c(OC)c1` [Example 202, 4-(4-(isopropylamino)-5-(2-methylbenzo[d]oxazol-6-yl)-7H-pyrrolo[2,3-d]pyrimidin-2-ylamino)-3-methoxy-N-methylbenzamide], the IC50 was under 100 nM.

On to `Cc1nc2ccc(-c3c[nH]c4nc(Nc5nn(C)cc5C)nc(OC5CCCC5)c34)cc2o1` [Example 297, 4-(cyclopentyloxy)-N-(1,4-dimethyl-1H-pyrazol-3-yl)-5-(2-methylbenzo[d]oxazol-6-yl)-7H-pyrrolo[2,3-d]pyrimidin-2-amine], for which the IC50 lay in the range of 1000 to 10000 nM.

Take `CNC(=O)c1ccc(Nc2nc(OC3CCOCC3)c3c(-c4ccc5nc(C)oc5c4)c[nH]c3n2)c(OC(F)(F)F)c1` [Example 192, N-methyl-4-(5-(2-methylbenzo[d]oxazol-6-yl)-4-(tetrahydro-2H-pyran-4-yloxy)-7H-pyrrolo[2,3-d]pyrimidin-2-ylamino)-3-(trifluoromethoxy)benzamide]: the IC50 was 100 to 400 nM.

As for `CNC(=O)c1ccc(-c2c[nH]c3nc(Nc4ccc(C(=O)NC)cc4OC)nc(O[C@H]4CCOC4)c23)cc1` [Example 182, (S)-3-methoxy-N-methyl-4-(5-(4-(methylcarbamoyl)phenyl)-4-(tetrahydrofuran-3-yloxy)-7H-pyrrolo[2,3-d]pyrimidin-2-ylamino)benzamide], the IC50 is under 100 nM.

As for `CNC(=O)c1ccc(Nc2nc(OC3CCCC3)c3c(-c4ccc(S(C)(=O)=O)cc4)c[nH]c3n2)c(OC)c1` [Example 61, 4-(4-(cyclopentyloxy)-5-(4-(methyl-sulfonyl)phenyl)-7H-pyrrolo[2,3-d]pyrimidin-2-ylamino)-3-methoxy-N-methylbenzamide], the IC50 is under 100 nM.

Take `CNC(=O)c1ccc(Nc2nc(OC3CCCC3)c3c(-c4ccc5[nH]c(=O)oc5c4)c[nH]c3n2)c(OC)c1` [Example 299, 4-(4-(cyclopentyloxy)-5-(2-oxo-2,3-dihydrobenzo[d]oxazol-6-yl)-7H-pyrrolo[2,3-d]pyrimidin-2-ylamino)-3-methoxy-N-methylbenzamide]: the IC50 lay within 100 to 400 nM.

For the compound `CNC(=O)c1ccc(Nc2nc(OC3CCCC3)c3c(-c4cc[nH]n4)c[nH]c3n2)c(OC)c1` [Example 80, 4-(4-(cyclopentyloxy)-5-(1H-pyrazol-3-yl)-7H-pyrrolo[2,3-d]pyrimidin-2-ylamino)-3-methoxy-N-methylbenzamide], the IC50 is under 100 nM.

As to `CNC(=O)c1ccc(Nc2nc(OC)c3c(-c4ccncc4)c[nH]c3n2)c(C)c1` [Example 156, 4-(4-methoxy-5-(pyridin-4-yl)-7H-pyrrolo[2,3-d]pyrimidin-2-ylamino)-N,3-dimethylbenzamide], the IC50 was in the range of 100 to 400 nM.

Take `CNC(=O)c1ccc(Nc2nc(OC(C)C)c3c(-c4cnn(C)c4)c[nH]c3n2)c(OC)c1` [Example 189, 4-(4-isopropoxy-5-(1-methyl-1H-pyrazol-4-yl)-7H-pyrrolo[2,3-d]pyrimidin-2-ylamino)-3-methoxy-N-methylbenzamide]: the IC50 was under 100 nM.

Regarding `COc1cc(C(=O)NCCO)ccc1Nc1nc(OC(C)C)c2c(-c3ccc4nc(C)oc4c3)c[nH]c2n1` [Example 160, N-(2-hydroxyethyl)-4-(4-isopropoxy-5-(2-methylbenzo[d]oxazol-6-yl)-7H-pyrrolo[2,3-d]pyrimidin-2-ylamino)-3-methoxybenzamide], the IC50 is under 100 nM.

Consider `COc1cc(C(=O)N2C[C@@H]2C)ccc1Nc1nc(OC2CCCC2)c2c(-c3ccc4nc(C)oc4c3)c[nH]c2n1` [Example 313, (S)-(4-(4-(cyclopentyloxy)-5-(2-methylbenzo[d]oxazol-6-yl)-7H-pyrrolo[2,3-d]pyrimidin-2-ylamino)-3-methoxyphenyl)(2-methylaziridin-1-yl)methanone], for which the IC50 was in the range of 400 to 1000 nM.

Turning to `CNC(=O)c1ccc(Nc2nc(NC3CC3)c3c(-c4ccc5nc(C)oc5c4)c[nH]c3n2)c(OC)c1` [Example 212, 4-(4-(cyclopropylamino)-5-(2-methylbenzo[d]oxazol-6-yl)-7H-pyrrolo[2,3-d]pyrimidin-2-ylamino)-3-methoxy-N-methylbenzamide], the IC50 lay in the range of 100 to 400 nM.

`COc1cc(C(=O)NCCO)ccc1Nc1nc(OC2CCOCC2)c2c(-c3ccc4nc(C)oc4c3)c[nH]c2n1` [Example 213, N-(2-hydroxyethyl)-3-methoxy-4-(5-(2-methylbenzo[d]oxazol-6-yl)-4-(tetrahydro-2H-pyran-4-yloxy)-7H-pyrrolo[2,3-d]pyrimidin-2-ylamino)benzamide]: the IC50 is under 100 nM.

The values are drawn from patent US9346812B2, “Substituted pyrrolopyrimidine compounds, compositions thereof, and methods of treatment therewith” (Signal Pharmaceutical LLC, priority 2013, dated 2016).
